Assay results: the supplement of paper PMC6045584
± gives the standard deviation of the averaged measurements.

How the values were obtained:
[1] = compound: CCCS(=O)(=O)Nc1ccc(F)c(C(=O)c2c[nH]c3ncc(Cl)cc23)c1F [PLX-4720]; test: surviving fraction relative to DMSO-only wells; higher = less growth inhibition; conditions: exposure time: 5 days
Outline: (§1)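 Log-phase tumour cell lines were seeded at 250–500 cells per well in 384-well plates. After 24 hours they were exposed continuously for five days to inhibitors at 0.5, 1, 5, 10, 50, 100, 500 and 1000 nM. Viability was read by CellTiter-Glo luminescence after 10 minutes at room temperature, and surviving fraction is luminescence normalised to the median of DMSO-only wells. Each line was screened three times and kept only if replicate Pearson r >0.7 and median Z' >0.3.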

[2] = compound: COc1cc(CCc2cc(NC(=O)c3ccc(N4CC(C)NC(C)C4)cc3)n[nH]2)cc(OC)c1 [AZD4547]; test: as above; conditions: exposure time: 5 days
Outline: as §1

Row | Test System | surviving fraction ([1]; 0.5 nM) | surviving fraction ([1]; 1 nM) | surviving fraction ([1]; 5 nM) | surviving fraction ([1]; 10 nM) | surviving fraction ([1]; 50 nM) | surviving fraction ([1]; 100 nM) | surviving fraction ([1]; 500 nM) | surviving fraction ([1]; 1000 nM) | surviving fraction ([2]; 0.5 nM) | surviving fraction ([2]; 1 nM) | surviving fraction ([2]; 5 nM) | surviving fraction ([2]; 10 nM) | surviving fraction ([2]; 50 nM) | surviving fraction ([2]; 100 nM) | surviving fraction ([2]; 500 nM) | surviving fraction ([2]; 1000 nM)
1 | HCC202 BREAST | 0.964 ± 0.1 | 1.22 ± 0.12 | 1.08 ± 0.17 | 1.09 ± 0.046 | 1.2 ± 0.11 | 1.46 ± 0.26 | 1.12 ± 0.28 | 1.06 ± 0.33 | 0.984 ± 0.2 | 1.17 ± 0.39 | 0.964 ± 0.22 | 1.04 ± 0.26 | 1.31 ± 0.41 | 1.16 ± 0.1 | 1.52 ± 0.38 | 1.18 ± 0.21
2 | LM7 BONE | 0.725 ± 0.067 | 0.715 ± 0.026 | 0.809 ± 0.033 | 0.825 ± 0.03 | 0.884 ± 0.066 | 0.948 ± 0.069 | 0.871 ± 0.028 | 0.87 ± 0.031 | 0.914 ± 0.098 | 0.959 ± 0.086 | 1.07 ± 0.044 | 0.982 ± 0.048 | 0.939 ± 0.064 | 0.985 ± 0.12 | 0.762 ± 0.034 | 0.571 ± 0.086
3 | CAL120 BREAST | 0.852 ± 0.027 | 0.899 ± 0.051 | 0.904 ± 0.04 | 0.881 ± 0.037 | 0.896 ± 0.022 | 0.946 ± 0.023 | 0.889 ± 0.071 | 0.911 ± 0.013 | 0.945 ± 0.043 | 0.9817 ± 0.0068 | 0.937 ± 0.03 | 0.888 ± 0.025 | 0.713 ± 0.029 | 0.681 ± 0.019 | 0.552 ± 0.05 | 0.491 ± 0.039
4 | HELA CERVIX | 0.96 ± 0.039 | 0.947 ± 0.051 | 0.957 ± 0.069 | 0.953 ± 0.022 | 1 ± 0.046 | 1.01 ± 0.025 | 1 ± 0.055 | 1.06 ± 0.058 | 1.04 ± 0.023 | 1.09 ± 0.035 | 1.07 ± 0.036 | 1.1 ± 0.032 | 1.08 ± 0.013 | 1.07 ± 0.03 | 1.08 ± 0.092 | 1.11 ± 0.13
5 | YAMATO SYNOVIAL | 0.15 ± 0.019 | 0.825 ± 0.054 | 0.619 ± 0.023 | 0.919 ± 0.055 | 0.281 ± 0.024 | 1.28 ± 0.086 | 0.874 ± 0.083 | 1.24 ± 0.091 | 1.19 ± 0.024 | 1.22 ± 0.074 | 1.25 ± 0.038 | 1.22 ± 0.046 | 1.16 ± 0.064 | 1.08 ± 0.045 | 0.911 ± 0.05 | 0.816 ± 0.048
6 | MHM BONE | 0.9713 ± 0.0025 | 0.96 ± 0.016 | 1 ± 0.023 | 1.02 ± 0.021 | 0.97 ± 0.022 | 1.01 ± 0.031 | 0.949 ± 0.0092 | 1.01 ± 0.038 | 0.961 ± 0.016 | 1 ± 0.006 | 0.995 ± 0.016 | 0.993 ± 0.021 | 0.776 ± 0.014 | 0.694 ± 0.0087 | 0.587 ± 0.0075 | 0.582 ± 0.011
7 | SNU475 LIVER | 0.358 ± 0.028 | 0.806 ± 0.029 | 0.674 ± 0.01 | 0.808 ± 0.02 | 0.392 ± 0.029 | 0.919 ± 0.021 | 0.839 ± 0.024 | 1 ± 0.055 | 0.956 ± 0.021 | 1.02 ± 0.059 | 0.95 ± 0.024 | 0.972 ± 0.056 | 0.925 ± 0.047 | 0.948 ± 0.019 | 0.939 ± 0.053 | 0.894 ± 0.012
8 | HCT15 LARGE INTESTINE | 0.419 ± 0.018 | 0.875 ± 0.043 | 0.755 ± 0.072 | 0.866 ± 0.029 | 0.513 ± 0.025 | 0.926 ± 0.046 | 0.886 ± 0.077 | 1.03 ± 0.026 | 1.03 ± 0.026 | 1.07 ± 0.029 | 1.03 ± 0.042 | 1.07 ± 0.048 | 1.03 ± 0.042 | 1.08 ± 0.033 | 1.1 ± 0.044 | 1.1 ± 0.041
9 | DU4475 BREAST | 0.783 ± 0.23 | 0.699 ± 0.14 | 0.791 ± 0.16 | 0.741 ± 0.1 | 0.597 ± 0.19 | 0.603 ± 0.17 | 0.0833 ± 0.03 | 0.0277 ± 0.0075 | 1.12 ± 0.37 | 0.979 ± 0.16 | 1.03 ± 0.27 | 0.998 ± 0.13 | 1.15 ± 0.3 | 1.08 ± 0.21 | 1.11 ± 0.21 | 1 ± 0.22
10 | SJSA1 BONE | 0.89 ± 0.025 | 0.914 ± 0.026 | 0.904 ± 0.028 | 0.948 ± 0.025 | 1.03 ± 0.033 | 1.03 ± 0.062 | 0.998 ± 0.059 | 0.955 ± 0.074 | 1.01 ± 0.028 | 1.08 ± 0.08 | 1.08 ± 0.076 | 1.09 ± 0.046 | 1.14 ± 0.036 | 1.06 ± 0.05 | 1.01 ± 0.041 | 0.975 ± 0.075
11 | HCC78 LUNG | 0.318 ± 0.06 | 1.01 ± 0.17 | 0.964 ± 0.06 | 1.05 ± 0.3 | 0.761 ± 0.13 | 1.01 ± 0.077 | 0.869 ± 0.04 | 0.951 ± 0.12 | 1.04 ± 0.2 | 1.14 ± 0.23 | 1.03 ± 0.13 | 0.986 ± 0.11 | 1.08 ± 0.039 | 1.13 ± 0.25 | 1.11 ± 0.25 | 1.1 ± 0.25
12 | HCC1395 BREAST | 0.827 ± 0.0092 | 0.878 ± 0.15 | 0.82 ± 0.15 | 0.787 ± 0.06 | 0.788 ± 0.17 | 0.888 ± 0.042 | 0.824 ± 0.08 | 0.927 ± 0.098 | 0.849 ± 0.077 | 0.904 ± 0.088 | 0.849 ± 0.07 | 0.748 ± 0.11 | 0.79 ± 0.072 | 0.804 ± 0.1 | 0.698 ± 0.06 | 0.762 ± 0.19
13 | NCIH441 LUNG | 0.899 ± 0.056 | 0.906 ± 0.072 | 0.919 ± 0.1 | 0.965 ± 0.016 | 0.933 ± 0.045 | 0.968 ± 0.025 | 0.961 ± 0.044 | 0.898 ± 0.085 | 0.977 ± 0.026 | 1.09 ± 0.035 | 1.06 ± 0.011 | 1.06 ± 0.066 | 1.01 ± 0.038 | 1.02 ± 0.026 | 0.934 ± 0.17 | 0.929 ± 0.093
14 | VCAP PROSTATE | 0.915 ± 0.03 | 0.942 ± 0.048 | 0.934 ± 0.031 | 0.986 ± 0.074 | 0.966 ± 0.01 | 1.11 ± 0.14 | 1.08 ± 0.061 | 1.07 ± 0.023 | 0.966 ± 0.078 | 0.976 ± 0.043 | 1.1 ± 0.12 | 0.989 ± 0.12 | 0.948 ± 0.07 | 1.07 ± 0.07 | 0.795 ± 0.048 | 0.705 ± 0.065
15 | SCC36 HEADNECK | 0.761 ± 0.06 | 0.694 ± 0.059 | 0.803 ± 0.036 | 0.76 ± 0.028 | 0.97 ± 0.058 | 0.983 ± 0.017 | 0.974 ± 0.13 | 0.958 ± 0.067 | 0.993 ± 0.053 | 1.07 ± 0.081 | 1.18 ± 0.17 | 1.09 ± 0.21 | 0.988 ± 0.07 | 1.01 ± 0.039 | 0.856 ± 0.029 | 0.687 ± 0.053
16 | SUM149 BREAST |  |  |  | 0.827 ± 0.063 | 0.289 ± 0.02 | 0.991 ± 0.094 | 0.821 ± 0.05 | 0.919 ± 0.011 | 0.989 ± 0.054 | 1.05 ± 0.11 | 1.08 ± 0.017 | 1 ± 0.034 | 1.04 ± 0.072 | 0.989 ± 0.05 | 1.02 ± 0.073 | 0.916 ± 0.047
